Assay results reported in ChEMBL document CHEMBL2424568, “Phenylpyrazolo[1,5-a]quinazolin-5(4H)-one: a suitable scaffold for the development of noncamptothecin topoisomerase I (Top1) inhibitors” (J Med Chem, 2013).
Activity calls are given as the source filed them. The calls are words filed in the database; no cut-off is given here.

target: T1, DNA topoisomerase 1 (Homo sapiens) (UniProt P11387); assay: Inhibition of recombinant DNA topoisomerase 1 (unknown origin) assessed as inhibition of topoisomerase 1-mediated DNA cleavage at 1 uM after 20 mins by SDS-PAGE analysis
T1 sequence (whole entry): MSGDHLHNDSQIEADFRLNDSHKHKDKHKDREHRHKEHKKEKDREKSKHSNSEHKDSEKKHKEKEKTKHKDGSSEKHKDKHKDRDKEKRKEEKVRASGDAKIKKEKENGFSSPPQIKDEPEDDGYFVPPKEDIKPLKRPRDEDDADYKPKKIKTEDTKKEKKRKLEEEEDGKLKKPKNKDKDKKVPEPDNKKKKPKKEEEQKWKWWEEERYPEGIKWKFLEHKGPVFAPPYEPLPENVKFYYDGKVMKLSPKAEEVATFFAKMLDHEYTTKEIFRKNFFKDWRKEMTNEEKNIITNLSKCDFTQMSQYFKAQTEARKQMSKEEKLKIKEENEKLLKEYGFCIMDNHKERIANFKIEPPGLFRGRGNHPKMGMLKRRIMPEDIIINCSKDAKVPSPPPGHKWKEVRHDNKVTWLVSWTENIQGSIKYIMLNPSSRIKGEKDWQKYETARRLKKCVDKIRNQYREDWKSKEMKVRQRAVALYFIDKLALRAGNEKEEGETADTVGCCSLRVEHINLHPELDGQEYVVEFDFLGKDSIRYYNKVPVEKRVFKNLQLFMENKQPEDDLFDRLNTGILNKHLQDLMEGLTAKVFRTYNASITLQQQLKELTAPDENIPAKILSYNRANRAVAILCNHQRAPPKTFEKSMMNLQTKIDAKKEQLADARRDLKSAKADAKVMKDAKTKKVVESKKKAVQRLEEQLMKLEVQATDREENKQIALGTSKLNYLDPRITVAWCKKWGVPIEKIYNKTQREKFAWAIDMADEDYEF

| SMILES | Top1 DNA cleavage inhibition (active/not active) |
| --- | --- |
| COc1cc2c3c(n(CCCNCCO)c(=O)c2cc1OC)-c1cc2c(cc1C3=O)OCO2 | Active |
| CCN(CC)CCOc1nc2c(-c3ccc(Cl)cc3)cnn2c2ccccc12 | inactive |
| CN(C)CCCOc1nc2c(-c3ccc(C(F)(F)F)cc3)cnn2c2ccccc12 | inactive |
| Clc1ccc(-c2cnn3c2nc(NCCCc2ncc[nH]2)c2ccccc23)cc1 | inactive |
| CN(C)CCCn1c(=O)c2ccccc2n2nc(-c3ccccc3)cc12 | inactive |

target: T1, DNA topoisomerase 1 (Homo sapiens); assay: Inhibition of recombinant DNA topoisomerase 1 (unknown origin) assessed as inhibition of topoisomerase 1-mediated DNA cleavage at 1 to 100 uM after 20 mins by SDS-PAGE analysis relative to control

| SMILES | Top1 cleavage inhibition (active/inactive) |
| --- | --- |
| c1ccc(-c2cc3nc(NCCCc4ncc[nH]4)c4ccccc4n3n2)cc1 | inactive |
| CCN(CC)CCNc1nc2cc(-c3ccccc3)nn2c2ccccc12 | inactive |
| CN(C)CCOc1nc2cc(-c3ccccc3)nn2c2ccccc12 | Active |
| CCN(CC)CCOc1nc2c(-c3ccc(Cl)cc3)cnn2c2ccccc12 | Active |
| CN(C)CCOc1nc2c(-c3ccc(Cl)cc3)cnn2c2ccccc12 | Active |
| CN(C)CCCOc1nc2c(-c3ccc(C(F)(F)F)cc3)cnn2c2ccccc12 | inactive |
| CCN(CC)CCNc1nc2c(-c3ccc(Cl)cc3)cnn2c2ccccc12 | Active |
| c1ccc(-c2cnn3c2nc(NCCCc2ncc[nH]2)c2ccccc23)cc1 | Active |
| CN(C)CCOc1nc2c(-c3ccccc3)cnn2c2ccccc12 | Active |
| CCN(CC)CCOc1nc2c(-c3ccccc3)cnn2c2ccccc12 | Active |
| CN(C)CCCOc1nc2c(-c3ccccc3)cnn2c2ccccc12 | Active |
| CN(C)CCNc1nc2c(-c3ccc(C(F)(F)F)cc3)cnn2c2ccccc12 | Active |
| COc1ccc(-c2cnn3c2nc(NCCCN(C)C)c2ccccc23)cc1 | Active |
| CCN(CC)CCNc1nc2c(-c3ccc(C(F)(F)F)cc3)cnn2c2ccccc12 | Active |
| FC(F)(F)c1ccc(-c2cnn3c2nc(NCCCc2ncc[nH]2)c2ccccc23)cc1 | inactive |
| COc1ccc(-c2cnn3c2nc(OCCCN(C)C)c2ccccc23)cc1 | Active |
| CN(C)CCCNc1nc2c(-c3ccc(C(F)(F)F)cc3)cnn2c2ccccc12 | Active |

| SMILES | Top1 cleavage inhibition (active/inactive) |
| --- | --- |
| CCN(CC)CCNc1nc2c(-c3ccc(OC)cc3)cnn2c2ccccc12 | Active |
| CCN(CC)CCOc1nc2cc(-c3ccccc3)nn2c2ccccc12 | Active |
| COc1ccc(-c2cnn3c2nc(NCCCc2ncc[nH]2)c2ccccc23)cc1 | inactive |
| CCN(CC)CCOc1nc2c(-c3ccc(OC)cc3)cnn2c2ccccc12 | Active |
| COc1ccc(-c2cnn3c2nc(OCCN(C)C)c2ccccc23)cc1 | Active |
| CN(C)CCOc1nc2c(-c3ccc(C(F)(F)F)cc3)cnn2c2ccccc12 | Active |
| CCN(CC)CCNc1nc2c(-c3ccccc3)cnn2c2ccccc12 | Active |
| Clc1ccc(-c2cnn3c2nc(NCCCc2ncc[nH]2)c2ccccc23)cc1 | inactive |
| CN(C)CCCOc1nc2c(-c3ccc(Cl)cc3)cnn2c2ccccc12 | Active |
| COc1ccc(-c2cnn3c2nc(NCCN(C)C)c2ccccc23)cc1 | Active |
| CN(C)CCCNc1nc2c(-c3ccc(Cl)cc3)cnn2c2ccccc12 | Active |
| CN(C)CCn1c(=O)c2ccccc2n2nc(-c3ccccc3)cc12 | Active |
| CN(C)CCCn1c(=O)c2ccccc2n2nc(-c3ccccc3)cc12 | inactive |
| CN(C)CCCOc1nc2cc(-c3ccccc3)nn2c2ccccc12 | inactive |
| CCN(CC)CCOc1nc2c(-c3ccc(C(F)(F)F)cc3)cnn2c2ccccc12 | inactive |
| O=c1c2ccccc2n2nc(-c3ccccc3)cc2n1CCCc1ncc[nH]1 | inactive |
| CN(C)CCNc1nc2c(-c3ccc(Cl)cc3)cnn2c2ccccc12 | Active |
